pIC50: −log10 of the molar value.
Legend:
[1] = system: Phosphorylation of ERK1/2 in AsPC-1 cells; assay: Phospho-ERK1/2 MSD Assay; assay type: cell-based, human; settings: Homo sapiens, ASPC1, 2 h, read-out: 2 h p-ERK (AsPC-1 cells), IC50
Procedure: AsPC-1 (ATCC® CRL-1682™) cells were cultured in RPMI 1640 Medium (ThermoFisher Scientific 11875093) containing 10% fetal bovine serum (ThermoFisher Scientific 16000044) and 1× penicillin-streptomycin-glutamine (ThermoFisher Scientific 10378016). Sixteen hours prior to compound treatment, AsPC-1 cells were seeded in 96-well cell culture plates at a density of 25,000 cells/well and incubated at 37° C., 5% CO2. A compound dose-response titration was diluted in growth media, added to appropriate wells of a cell culture plate, and then incubated at 37° C., 5% CO2 for 2 hours. Following compound treatment, cells were washed with ice-cold Dulbecco's phosphate-buffered saline, no Ca^2+ or Mg^2+ (ThermoFisher Scientific 14190144), and then lysed in RIPA buffer (50 mM Tris-HCl pH 7.5, 1% Igepal, 0.5% sodium deoxycholate, 150 mM NaCl, and 0.5% sodium dodecyl sulfate) containing protease inhibitors (Roche 4693132001) and phosphatase inhibitors (Roche 4906837001). Phosphorylation of ERK1/2 in compound-treated lysates was assayed using Phospho-ERK1/2 Whole Cell Lysate kits (Meso Scale Discovery K151DWD) according to the manufacturer's protocol. Assay plates were read on a Meso Scale Discovery Sector Imager 6000, and data were analyzed using a 4-parameter logistic model to calculate IC50 values.

[2] = molecular target: GDP-bound KRAS protein (aa 1-169), containing both G12D and C118A amino acid substitutions (Homo sapiens (Human), UniProt P01116, C118A/G12D); assay: KRAS G12D Coupled Nucleotide Exchange Assay; assay type: biochemical; settings: read-out: KRAS G12D Coupled Exchange IC50
GDP-bound KRAS protein (aa 1-169), containing both G12D and C118A amino acid substitutions, sequence (P01116 other isoform, or with tags, fused parts or gaps G12D/C118A): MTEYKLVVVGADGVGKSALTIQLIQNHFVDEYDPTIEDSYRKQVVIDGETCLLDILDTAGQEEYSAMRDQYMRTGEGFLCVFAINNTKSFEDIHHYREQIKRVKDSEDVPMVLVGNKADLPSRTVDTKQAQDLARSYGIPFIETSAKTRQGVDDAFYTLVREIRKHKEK

[3] = molecular target: His-tagged KRAS G12D protein (Homo sapiens (Human), UniProt P01116, G12D); assay: KRAS G12D TR-FRET Assay; assay type: binding; settings: read-out: KRAS G12D Binding IC50
His-tagged KRAS G12D protein, sequence (P01116 other isoform, or with tags, fused parts or gaps G12D): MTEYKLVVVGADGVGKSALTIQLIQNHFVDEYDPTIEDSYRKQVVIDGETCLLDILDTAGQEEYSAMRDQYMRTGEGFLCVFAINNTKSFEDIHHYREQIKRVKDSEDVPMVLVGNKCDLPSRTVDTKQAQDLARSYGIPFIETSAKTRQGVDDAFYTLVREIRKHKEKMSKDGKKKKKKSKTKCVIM
How it was run: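 His-tagged KRAS G12D (diluted to 20 nM in pH 7.4 HEPES buffer with 10 mM MgCl2 and 10 μM GDP) was preincubated with titrated compound for 30 min at room temperature. Biotinylated KRPep-2d peptide (diluted to 20 nM) was then added for 1 h, and displacement was monitored by TR-FRET.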

Row | pIC50 [1] | pIC50 [2] | pIC50 [3] | SMILES
1 | 6.32 | 7.82 | 7.70 | CN1CCO[C@@H](COc2nc3c4cnc(c(F)c4n2)-c2c(c(Cl)cc4[nH]ncc24)CCCOC(=O)O[C@@H]2COCCN3C2)C1 [Example 124]
2 | 6.70 | 8.15 | 7.57 | CN1CCN(c2nc3c4cnc(c(F)c4n2)-c2c(c(Cl)cc4[nH]ncc24)CCCOC(=O)O[C@@H]2COCCN3C2)CC1 [Example 347, (26S)-18-chloro-32-fluoro-4-(4-methyl-1-piperazinyl)-23,25,28-trioxa-1,3,5,9,14,15-hexaazahexacyclo[24.4.1.1~6,10~.0~2,7~.0~11,19~.0~12,16~]dotriaconta-2,4,6,8,10(32),11,13,16,18-nonaen-24-one]
3 | 6.78 | 7.96 | 7.92 | O=C1COCCc2c(Cl)cc3[nH]ncc3c2-c2ncc3c(nc(OC[C@@]45CCCN4C[C@H](F)C5)nc3c2F)N2CCC[C@H](C2)O1 [Example 90, (17R)-9-chloro-30-fluoro-24-(((2R,7aS)-2-fluorotetrahydro-1H-pyrrolo[1,2-a]pyrrol-7a(5H)-yl)methoxy)-13,16-dioxa-5,6,21,23,25,29-hexaazahexacyclo[24.3.1.1~17,21~.0~2,10~.0~3,7~.0~22,27~]hentriaconta-1(30),2,4,7,9,22,24,26,28-nonaen-15-one]
4 | 6.37 | 7.80 | 7.47 | C[C@H](Oc1nc2c3cnc(c(F)c3n1)-c1c(c(Cl)cc3[nH]ncc13)CCCOC(=O)O[C@@H]1COCCN2C1)[C@@H]1CCCN1C [Example 204, (26S)-18-chloro-32-fluoro-4-((1S)-1-((2S)-1-methyl-2-pyrrolidinyl)ethoxy)-23,25,28-trioxa-1,3,5,9,14,15-hexaazahexacyclo[24.4.1.1~6,10~.0~2,7~.0~11,19~.0~12,16~]dotriaconta-2,4,6,8,10(32),11,13,16,18-nonaen-24-one]
5 | 5.94 | 7.74 | 7.70 | Cc1c2ncc3c(nc(OCC4CN(C)CCO4)nc13)N1CCC[C@](C)(C1)NC(=O)CCCc1c(F)ccc3cc(O)cc-2c13 (mixture of isomers) [Example 24]
6 | 5.68 | 7.70 | 7.54 | CN1C(=O)CCCCc2c(Cl)cc3[nH]ncc3c2-c2cc3nc(OC[C@@]45CCCN4C[C@H](F)C5)nc(c3nn2)N2CCC[C@@H]1C2 [Example 73, (17R)-9-Chloro-24-(((2R,7aS)-2-fluorotetrahydro-1H-pyrrolo[1,2-a]pyrrol-7a(5H)-yl)methoxy)-16-methyl-5,6,16,21,23,25,28,29-octaazahexacyclo[24.3.1.1˜17,21˜.0˜2,10˜.0˜3,7˜.0˜22,27˜]hentriaconta-1(30),2,4,7,9,22,24,26,28-nonaen-15-one]
7 | 6.97 | 7.92 | 7.82 | Cc1cc2[nH]ncc2c2c1C[C@H](C)COC(=O)O[C@@H]1CCCN(C1)c1nc(OC[C@@]34CCCN3C[C@H](F)C4)nc3c(F)c-2ncc13 (single isomer, unassigned) [Example 215]
8 | 5.70 | 7.49 | 7.51 | Cc1cc2[nH]ncc2c2c1CCCC(=O)OCC1(O)CCCN(C1)c1nc(OC[C@@]34CCCN3C[C@H](F)C4)nc3c(F)c-2ncc13 (mixture of isomers) [Example 103]
9 | 5.91 | 8.30 | 7.59 | O=C1N[C@@H]2CCCCN(C2)c2nc(OC[C@@]34CCCN3C[C@H](F)C4)nc3c(F)c(ncc23)-c2c(c(Cl)cc3[nH]ncc23)CCCCO1 [Example 291, (27R)-18-chloro-33-fluoro-4-(((2R,7aS)-2-fluorotetrahydro-1H-pyrrolo[1,2-a]pyrrol-7a(5H)-yl)methoxy)-24-oxa-1,3,5,9,14,15,26-heptaazahexacyclo[25.4.1.1~6,10~.0~2,7~.0~11,19~.0~12,16~]tritriaconta-2,4,6(33),7,9,11,13,16,18-nonaen-25-one]
10 | 6.08 | 6.30 | 5.87 | O=C1OCCCc2c(Cl)cc3[nH]ncc3c2-c2ncc3c(nc(OC[C@@]45CCCN4C[C@H](F)C5)nc3c2F)N2CCCC[C@@](CF)(C2)O1 [Example 339, (26S)-18-chloro-32-fluoro-26-(fluoromethyl)-4-(((2R,7aS)-2-fluorotetrahydro-1H-pyrrolo[1,2-a]pyrrol-7a(5H)-yl)methoxy)-23,25-dioxa-1,3,5,9,14,15-hexaazahexacyclo[24.4.1.1~6,10~.0~2,7~.0~11,19~.0~12,16~]dotriaconta-2,4,6,8,10(32),11,13,16,18-nonaen-24-one]
11 | 6.94 | 8.30 | 8.15 | Cc1cc2[nH]ncc2c2c1CCC[C@H](F)C(=O)N[C@@H]1CCCN(C1)c1nc(OC[C@@]34CCCN3C[C@H](F)C4)nc3c(F)c-2ncc13 (mixture of isomers) [Example 49, (17R)-14,30-difluoro-24-(((2R,7aS)-2-fluorotetrahydro-1H-pyrrolo[1,2-a]pyrrol-7a(5H)-yl)methoxy)-9-methyl-5,6,16,21,23,25,29-heptaazahexacyclo[24.3.1.1~17,21~.0~2,10~.0~3,7~.0~22,27~]hentriaconta-1(30),2,4,7,9,22,24,26,28-nonaen-15-one]
12 | 5.33 | 7.59 | 7.47 | Cc1cc2[nH]ncc2c2c1CCCCC(=O)N[C@@H]1COCCN(C1)c1nc(OC[C@@]34CCCN3C[C@H](F)C4)nc3c(F)c-2ncc13 [Example 66, (26S)-32-fluoro-4-(((2R,7aS)-2-fluorotetrahydro-1H-pyrrolo[1,2-a]pyrrol-7a(5H)-yl)methoxy)-18-methyl-28-oxa-1,3,5,9,14,15,25-heptaazahexacyclo [24.4.1.1~6,10~.0~2,7~.0~11,19~.0~12,16~]dotriaconta-2,4,6,8,10(32),11,13,16,18-nonaen-24-one]
13 | 6.61 | 7.82 | 7.77 | Fc1c2ncc3c(nc(OC[C@@]45CCCN4C[C@H](F)C5)nc13)N1CCC[C@@H](COCCOCc3c(Cl)cc4[nH]ncc4c3-2)C1 [Example 142]
14 | 6.53 | 7.89 | 7.80 | Fc1c2ncc3c(nc(OC[C@@]45CCCN4C[C@H](F)C5)nc13)N1CCC[C@H](C1)Cn1cc(cn1)/C=C\c1c(Cl)cc3[nH]ncc3c1-2 [Example 147]
15 | 6.62 | 8.40 | 8.10 | O=C1OCCc2c(F)ccc3cccc(c23)-c2ncc3c(nc(OC[C@@]45CCCN4C[C@H](F)C5)nc3c2F)N2CCOC[C@H](C2)O1 [Example 371]
16 | 5.94 | 7.70 | 7.52 | O=C1CCCc2c(F)ccc3cccc(c23)-c2ncc3c(nc(OC[C@@]45CCCN4C[C@H](F)C5)nc3c2F)N2CCCC[C@H](C2)N1 [Example 69, (16R)-23,32-difluoro-8-(((2R,7aS)-2-fluorotetrahydro-1H-pyrrolo[1,2-a]pyrrol-7a(5H)-yl)methoxy)-3,7,9,11,17-pentaazahexacyclo[20.7.1.1~2,6~.1~11,16~.0~5,10~.0~26,30~]dotriaconta-1(29),2(32),3,5,7,9,22,24,26(30),27-decaen-18-one]
17 | 7.10 | 8.30 | 8.22 | Cc1cc2[nH]ncc2c2c1CCCC(F)C(=O)N[C@@H]1CCCCN(C1)c1nc(OC[C@@]34CCCN3C[C@H](F)C4)nc3c(F)c-2ncc13 (single isomer, unassigned) [Example 159]
18 | 6.39 | 7.92 | 7.72 | Cc1cc2[nH]ncc2c2c1CCC[C@@H](F)C(=O)N(C)[C@@H]1CCCN(C1)c1nc(OC[C@@]34CCCN3C[C@H](F)C4)nc3c(F)c-2ncc13 [Example 52, (14R,17R)-14,30-difluoro-24-(((2R,7aS)-2-fluorotetrahydro-1H-pyrrolo[1,2-a]pyrrol-7a(5H)-yl)methoxy)-9,16-dimethyl-5,6,16,21,23,25,29-heptaazahexacyclo[24.3.1.1~17,21~.0~2,10~.0~3,7~.0~22,27~]hentriaconta-1(30),2,4,7,9,22,24,26,28-nonaen-15-one]
19 | 5.87 | 7.74 | 7.51 | Fc1c2ncc3c(nc(OC[C@@]45CCCN4C[C@H](F)C5)nc13)N1CCCC(Cc3ncn(n3)CCc3c(Cl)cc4[nH]ncc4c3-2)C1 (stereo partly drawn) [Example 232]
20 | 6.73 | 7.96 | 7.82 | Cc1cc2[nH]ncc2c2c1CC(C)COC(=O)O[C@@H]1CCCN(C1)c1nc(OC[C@@]34CCCN3C[C@H](F)C4)nc3c(F)c-2ncc13 (stereo partly drawn) [Example 111]

Source: patent US20240294551A1 (AMGEN INC., priority 2022, published 2024)
